Experimental data from paper PMC5428013, “Peptide-Au Clusters Induced Tumor Cells Apoptosis via Targeting Glutathione Peroxidase-1: The Molecular Dynamics Assisted Experimental Studies” (Scientific Reports, 2017).
“Also recorded” adds a separate entry of the source.

Experiments:
[1] = test system: A549 cells; assay: Uptake of Au25P1_9 by A549 cells determined by ICP-MS; assay type: cell-based, human; conditions: Au dose 0, 100, 200, 400, 800 μM, 48 h
Experimental: The cells were cultured in medium supplemented with 10% fetal bovine serum and 1% penicillin and streptomycin in a culture flask (25 cm^2), reseeded every 2–4 days to maintain subconfluency and kept in humidified atmosphere of 95% air and 5% CO2 at 37 °C. After cells reaching 80% confluence during the exponential growth in culture flask, the cells were harvested and subcultured on 6-well plate (at the density of 1 × 10^5 cells/well) for 24 h. Then the medium was discarded and fresh culture medium with Au25P1_9 at different doses was added to make cells exposed to final Au doses at 0, 100, 200, 400 and 800 μM, respectively. After another 48 h incubation, the cells were treated with trypsin and collected, and then washed thrice with PBS. 5 × 10^5 cells of each sample counted by flow cytometry were predigested by HNO3 and H2O2 at a volume ratio of 3:1 for 12 h and further digested by aqua regia at 160 °C, and then diluted to 10 mL aqueous solution with 1% HCl and 2% HNO3. Finally, the amount of Au25P1_9 taken into cells was measured by ICP-MS with Au calibration curve.

[2] = test system: GPx-1; assay: Cellular GPx-1 activity in treated A549 cells; assay type: cell-based, human; conditions: 48 h
Experimental: (§1) A549 cells were prior seeded on 6-well plate (at the density of 1 × 10^5 cells/well) for 24 h. Then the medium was discarded and fresh culture medium with Au25P1_9 at different doses was added to make cells exposed to final Au doses at 0, 100, 200, 400 and 800 μM, respectively. After another 48 h incubation, the cells were washed thrice with PBS and lysed by cell lysis buffer containing 1 mM PMSF for 15 min on a shaker at 4 °C. The lysed cells were collected and centrifuged for 20 min at 12,000 g to get total protein of cells. The protein dose of each sample was quantified by BCA Protein Assay Kit and the GPx-1 activity of peptide-Au clusters treated A549 cells was measured by GPx Activity Colorimetric Assay Kit, respectively. For the control experiments, a series of Au doses of Au25P1_9 at 0, 5, 25, 100, 400 μM were incubated with the GPx-1 containing cell lysate of A549 cells for 10 min and the GPx-1 activity of theses samples was also measured. The GPx-1 activity of untreated samples was set as 100%, and that of peptide-Au clusters treated samples were expressed as a relative percentage of untreated ones.

[3] = test system: GPx-1; assay: GPx-1 activity in A549 cell lysate; assay type: biochemical, human; conditions: Au dose 0, 5, 25, 100, 400 μM, 10 min
Experimental: as §1

[4] = test system: A549 cells; assay: Intracellular ROS level by flow cytometry (CM-H2DCFDA); assay type: cell-based, human; conditions: 48 h
Experimental: For CLSM observation, cells were prior cultured on glass-bottom dishes. Au25P1_9 was added to culture medium and the final Au dose was 800 µM. After 48 h. the cells were washed three times with PBS and incubated with 5 µM CM-H2DCFDA, at 37 °C under darkness for 30 min. Before CLSM observation, the culture medium was discarded and the cells were washed three times with PBS, supplemented with fresh culture medium. Finally, ROS in cells were highlighted by green fluorescence emission of CM-H2DCFDA, imaged under Nikon Ti-e microscope with excitation at wavelengths of 488 nm. For flow cytometry analysis, cells were prior seeded on 6-well plate (at the density of 1 × 10^5 cells/well) for 24 h. Then the medium was discarded and fresh culture medium containing Au25P1_9 with Au dose at 800 μM was added. For another 48 h incubation, the cells were washed thrice with PBS, and incubated with 5 µM CM-H2DCFDA at 37 °C under darkness for 30 min. After washing with PBS, the cells were collected and suspended in ice cold PBS. Fluorescence intensity of 20,000 events was recorded using an Accuri C6 flow cytometer and the level of intracellular ROS was analyzed by Cflow software.

[5] = test system: caspase-3; assay: Cleaved caspase-3 level, western blotting; assay type: cell-based, human; conditions: serial Au doses (0, 100, 200, 400, 800 μM), 48 h
Experimental: The expression of GPx-1, caspase-3 and PARP from Au25P1_9 treated A549 cells were analyzed by western blotting. A549 cells were prior seeded on 6-well plate (at the density of 1 × 10^5 cells/well) for 24 h. Then the medium was discarded and fresh culture medium with Au25P1_9 at different doses was added to make cells exposed to final Au doses at 0, 100, 200, 400 and 800 μM, respectively. After another 48 h incubation, the cells were harvested and lysed by cell lysis buffer for Western and IP (containing 20 mM Tris-HCl, pH7.5, 150 mM NaCl, 1% Triton X-100, sodium pyrophosphate, β-glycerophosphate, EDTA, Na3VO4 and leupeptin), protease inhibitor cocktail tablet and 1 mM PMSF for 15 min on a shaker at 4 °C. The lysed cells were collected and centrifuged for 15 min at 12,000 g to get total protein of cells. The protein dose of each sample was prior quantified, and then loading buffer was added. After boiling for 5 min, the protein samples with equal amount were separated on 12% SDS polyacrylamide gel electrophoresis and then transferred onto the polyvinylidene difluoride (PVDF) membrane. Membrane was blocked by 5% nonfat dried milk prepared in tris(hydroxymethyl)amin omethane-NaCl-Tween 20 (TBST) at room temperature for 1 h, and then incubated with primary antibodies specific to β-actin, Caspase-3, PARP and GPx-1 at 4 °C overnight, respectively. […]

[6] = test system: A549 cells; assay: Apoptosis evaluation, Annexin V-FITC/PI dual staining; assay type: cell-based, human; conditions: 48 h
Experimental: Apoptosis detection with Annexin V-FITC/PI fluorescence dual staining was carried out by flow cytometry. Briefly, about 2 mL of 1 × 10^5 cells/mL of A549 cells were seeded in 6-well plate for 24 h before treatment with Au25P1_9 at different Au doses. The cells were treated with Au25P1_9 (Au dose at 0, 100, 200, 400 and 800 μM) for 48 h, respectively. Then culture medium and cells in each well were collected and centrifuged at 1200 rpm for 3 min. The supernatant was discarded and the cells were washed twice with PBS. 195 μL Annexin V-FITC binding buffer was added to re-suspend the cells at a dose of ~5 × 10^5 cells/mL in 1.5 mL Eppendorf tube. 5 μL Annexin V-FITC and 10 μL PI stains were added into each cell suspension, respectively. The tubes were incubated at room temperature under darkness for exactly 15 min. The fluorescence of the cells was determined immediately with flow cytometer. Cells at the early stage of apoptotic process were stained with the Annexin V-FITC alone. Necrotic cells were stained by both the Annexin V-FITC and PI. […] So, the percentage of apoptotic and necrosis cells can be analyzed by Cflow software.

CCYGGPEEEEEVG [Au25P1_9, Au25 cluster coated by nine P1 peptides (…)]
cellular uptake [1]: dosage dependent manner
cellular GPx-1 activity (relative to untreated = 100%) ([2]; 800 μM of Au): 27%
cellular GPx-1 activity ([2]; Au dose 0, 100, 200, 400, 800 μM): significantly decreases as Au25P1_9 dose increase; also recorded: the most effective candidate for suppression of GPx-1 activity in buffer and cells
GPx-1 activity in cell lysate [3]: suppressed via an Au dose dependent manner
FL1-H fluorescence intensity (ROS) ([4]; Au dose 800 µM, with CM-H2DCFDA, CM-H2DCFDA only control 20088, untreated 2674): 43464
intracellular ROS level relative to control ([4]; Au dose of 800 μM, 5 µM CM-H2DCFDA, flow cytometry, 20,000 events): ~ 210%
cleaved caspase-3 level [5]: Au dose-dependent increase of cleaved caspases-3
cell apoptosis ratio ([6]; A549, Au25P1_9 dose 100 μM (Au)): 5.8%
cell apoptosis ratio ([6]; A549, Au25P1_9 dose 800 μM (Au)): 15.2%
cell apoptosis dose dependence ([6]; A549, Au dose 0, 100, 200, 400, 800 μM): dose-dependent manner
